Among the test systems are CAKI-1; COLO 205; DU-145; HCT-116; HCT-15; Hs-578T; K562; MDA-N; Malme-3M; NCI-H522; OVCAR-4; RPMI-8226; SK-MEL-2; SK-OV-3; SW-620.
Assay in all cases: growth of human tumour cells (NCI), 48 h

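Cultured in 96-well plates, cells were exposed to test compound for 48 hours across five concentrations. Here, GI50 denotes the concentration required for 50% inhibition of growth.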 Activity calls are given as the source filed them. No stated cut-off is given here; in the data, active = GI50 up to about 1.1 µM and inactive = higher.

With `C[N+](C)(C)CCN[N+]1(C)CCCc2ccccc21` (stereo not given), the GI50 in the experiment with CAKI-1 was > 100 µM (inactive); in the experiment on COLO 205, 36.2 µM (inactive); in the experiment with DU-145, > 100 µM (inactive); in the experiment with HCT-116, 52 µM (inactive); in the experiment on HCT-15 it was above 100 µM; with Hs-578T it was > 100 µM (inactive). Besides, the GI50 was 39 µM (inactive) with K562; > 100 µM (inactive) in the experiment with MDA-N; 23 µM (inactive) in the experiment on Malme-3M; 18.5 µM (inactive) in the experiment with NCI-H522; > 100 µM (inactive) with OVCAR-4; 32.8 µM (inactive) in the experiment on RPMI-8226. Moreover, the GI50 was > 100 µM (inactive) in the experiment on SK-MEL-2, > 100 µM (inactive) in the experiment on SK-OV-3 and 38.5 µM (inactive) with SW-620.
On to `CC(C)(C)/C(=N\Nc1nc2ccccc2[nH]1)c1ccccn1`, for which the GI50 with CAKI-1 is 48.2 µM (inactive); with COLO 205, 33 µM (inactive); with DU-145, 95.9 µM (inactive); in the experiment with HCT-116, 22.8 µM (inactive); in the experiment on HCT-15, 43.1 µM; in the experiment with Hs-578T it was > 100 µM (inactive). Moreover, the GI50 in the experiment with K562 was 99.8 µM (inactive); in the experiment on MDA-N it was > 100 µM (inactive); in the experiment with Malme-3M, 9.18 µM (inactive); in the experiment with NCI-H522, 33.9 µM (inactive); with OVCAR-4 it was 53.7 µM (inactive); in the experiment on RPMI-8226, 12.9 µM (inactive). Besides, the GI50 is > 100 µM (inactive) in the experiment with SK-MEL-2, > 100 µM (inactive) with SK-OV-3 and 65.2 µM (inactive) with SW-620.
For the compound `CCOC(=O)C(C(=O)c1ccccc1C(=O)OC)=P(c1ccccc1)(c1ccccc1)c1ccccc1`, the GI50 with CAKI-1 is > 10 µM (inactive); with COLO 205, > 10 µM (inactive); with DU-145, > 10 µM (inactive); in the experiment on HCT-116 it was > 10 µM (inactive); in the experiment with HCT-15 it was above 10 µM; in the experiment on Hs-578T, > 10 µM (inactive). The GI50 in the experiment with K562, in the experiment on MDA-N, in the experiment on Malme-3M, in the experiment on NCI-H522, in the experiment with OVCAR-4 and with RPMI-8226 was > 10 µM (inactive) each time. For the same compound, the GI50 in the experiment with SK-MEL-2, with SK-OV-3 and in the experiment on SW-620 was > 10 µM (inactive) throughout.
On to `CCCCCCCC/C=C\CCCCCCC(F)C(=O)O` (stereo not given), for which the GI50 is > 12.5 µM (inactive) in the experiment on CAKI-1; > 12.5 µM (inactive) in the experiment with COLO 205; > 12.5 µM (inactive) in the experiment with DU-145; > 12.5 µM (inactive) in the experiment on HCT-116; above 12.5 µM with HCT-15; > 12.5 µM (inactive) in the experiment with Hs-578T. The GI50 with K562 was > 12.5 µM (inactive); with MDA-N, > 12.5 µM (inactive); with Malme-3M, > 12.5 µM (inactive); with NCI-H522, > 12.5 µM (inactive); in the experiment with OVCAR-4, > 12.5 µM (inactive); in the experiment with RPMI-8226 it was 11.2 µM (inactive). The GI50 with SK-MEL-2, with SK-OV-3 and with SW-620 was > 12.5 µM (inactive) in each case.
For `C[C@]12CC[C@@H]3c4ccc(O)cc4CC[C@H]3[C@@H]1CC[C@@H]2OC(=O)CCc1ccccc1`, the GI50 in the experiment on CAKI-1 was 18.4 µM (inactive); in the experiment with COLO 205 it was 19.6 µM (inactive); with DU-145 it was 19.5 µM (inactive); in the experiment on HCT-116, 20.3 µM (inactive); in the experiment on HCT-15 it was 14.4 µM; in the experiment with Hs-578T, 5.14 µM (inactive). Further, the GI50 with K562 was 11 µM (inactive); with MDA-N, 7.46 µM (inactive); with Malme-3M it was 17.6 µM (inactive); in the experiment on NCI-H522 it was 15.3 µM (inactive); in the experiment with OVCAR-4, 17.5 µM (inactive); in the experiment on RPMI-8226, 15.7 µM (inactive). For the same compound, the GI50 in the experiment with SK-MEL-2 was 15.2 µM (inactive); in the experiment on SK-OV-3 it was 15.5 µM (inactive); in the experiment on SW-620 it was 23.3 µM (inactive).
As for `COc1ccc2c(O)c(S(=O)(=O)c3ccc(C)cc3)c(=O)oc2c1OC`, the GI50 in the experiment with CAKI-1 was > 100 µM (inactive); with COLO 205 it was > 100 µM (inactive); with DU-145 it was > 100 µM (inactive); with HCT-116, > 100 µM (inactive); with HCT-15, above 100 µM; with Hs-578T, > 100 µM (inactive). The GI50 in the experiment with K562, in the experiment on MDA-N, in the experiment on Malme-3M, with NCI-H522, in the experiment with OVCAR-4 and in the experiment with RPMI-8226 was > 100 µM (inactive) each time. In addition, the GI50 in the experiment with SK-MEL-2, in the experiment with SK-OV-3 and with SW-620 was > 100 µM (inactive) throughout.
As for `CC(C)NCCC(O)c1cc2ccccc2o1` (stereo not given), the GI50 was > 100 µM (inactive) in the experiment with CAKI-1; > 100 µM (inactive) with COLO 205; > 100 µM (inactive) in the experiment with DU-145; > 100 µM (inactive) in the experiment with HCT-116; above 100 µM with HCT-15; > 100 µM (inactive) in the experiment on Hs-578T. Besides, the GI50 in the experiment with K562 is 1.06 µM (active); with MDA-N it was > 100 µM (inactive); in the experiment on Malme-3M it was > 100 µM (inactive); with NCI-H522, > 100 µM (inactive); in the experiment on OVCAR-4, > 100 µM (inactive); in the experiment with RPMI-8226, > 100 µM (inactive). Further, the GI50 in the experiment on SK-MEL-2, with SK-OV-3 and with SW-620 was > 100 µM (inactive) in each case.
For the compound `CC(C)CC1C(=O)NCCC(NC(=O)C(N)Cc2ccc(O)cc2)C(=O)NC(Cc2ccccc2)C(=O)NC(Cc2ccccc2)NC1=O` (stereo not given), the GI50 with CAKI-1 is > 100 µM (inactive); in the experiment with COLO 205 it was > 100 µM (inactive); in the experiment on DU-145, > 100 µM (inactive); with HCT-116, > 100 µM (inactive); with HCT-15 it was above 100 µM; in the experiment on Hs-578T it was 0.885 µM (active). The GI50 in the experiment with K562 was > 100 µM (inactive); with MDA-N, > 100 µM (inactive); in the experiment on Malme-3M it was > 100 µM (inactive); in the experiment with NCI-H522 it was > 100 µM (inactive); with OVCAR-4 it was > 100 µM (inactive); with RPMI-8226, 78.2 µM (inactive). Moreover, the GI50 with SK-MEL-2, with SK-OV-3 and in the experiment with SW-620 was > 100 µM (inactive) throughout.
In the case of `CCC1c2[nH]c3ccccc3c2C[C@H]2C(=O)NC(Cc3ccccc3)C(=O)N12` (stereo not given in full), the GI50 in the experiment with CAKI-1 was 35.4 µM (inactive); in the experiment on COLO 205, 20.6 µM (inactive); in the experiment on DU-145, 40 µM (inactive); in the experiment on HCT-116, 24.7 µM (inactive); in the experiment on HCT-15, 35 µM; in the experiment on Hs-578T, 12.4 µM (inactive). The GI50 in the experiment with K562 is 31.4 µM (inactive); in the experiment with MDA-N it was 25.8 µM (inactive); with Malme-3M, 19.7 µM (inactive); with NCI-H522, 22.9 µM (inactive); in the experiment with OVCAR-4 it was 33.6 µM (inactive); in the experiment on RPMI-8226, 20.2 µM (inactive). Also, the GI50 with SK-MEL-2 was 20.9 µM (inactive); in the experiment on SK-OV-3, 44.7 µM (inactive); in the experiment on SW-620, 35.6 µM (inactive).
Regarding `CCC1(O)C(=O)OCc2c1cc1n(c2=O)Cc2cc3cc(N)ccc3nc2-1` (stereo not given), the GI50 was < 0.01 µM (active) in the experiment with CAKI-1; 0.366 µM (active) in the experiment with COLO 205; < 0.01 µM (active) in the experiment on DU-145; < 0.01 µM (active) in the experiment with HCT-116; 0.0721 µM with HCT-15; 1.42 µM (inactive) in the experiment on Hs-578T. Besides, the GI50 with K562 was < 0.0127 µM (active); in the experiment on MDA-N it was 0.0232 µM (active); in the experiment with Malme-3M it was 0.0299 µM (active); in the experiment with NCI-H522 it was < 0.01 µM (active); in the experiment on OVCAR-4, 0.257 µM (active); in the experiment on RPMI-8226 it was 0.0341 µM (active). Also, the GI50 with SK-MEL-2 was 0.0964 µM (active); in the experiment with SK-OV-3, < 0.01 µM (active); in the experiment on SW-620, 0.0219 µM (active).

(Values after ChEMBL document CHEMBL1201862, “PubChem BioAssay data set” (2004).)
